Drawing on PubChem BioAssay AID330 (DTP/NCI, 2004), this text covers T/C for 21 molecules.

The test system of the assay is P388 leukemia ip, CD2F1 mice, survival T/C. The experiment in a line: NCI In Vivo Anticancer Drug Screen. Data for tumor model P388 Leukemia (intraperitoneal) in CD2F1 (CDF1) mice. Particulars: endpoint: median survival time, higher = longer survival. The procedure, abridged: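 Mice carrying the transplanted tumor received test compound or vehicle. Survival was recorded in each group, and the value is the treated-group measurement divided by that of the vehicle-treated control group.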

Setting [1] is: dose: 25.0 mg/kg/injection, schedule: Q01DX005 (ip), vehicle: saline with Tween-80.
The mark [2] stands for this setting: dose: 50.0 mg/kg/injection, schedule: Q01DX005 (ip), vehicle: saline with Tween-80.
Setting [3] is: dose: 100.0 mg/kg/injection, schedule: Q01DX005 (ip), vehicle: saline with Tween-80.
Setting [4] is: dose: 200.0 mg/kg/injection, schedule: Q01DX005 (ip), vehicle: saline with Tween-80.
Setting [5] is: dose: 50.0 mg/kg/injection, schedule: Q04DX003 (ip), vehicle: saline with Tween-80.
Setting [6] is: dose: 100.0 mg/kg/injection, schedule: Q04DX003 (ip), vehicle: saline with Tween-80.
Where [7] appears, read: dose: 50.0 mg/kg/injection, schedule: Q01DX009 (ip), vehicle: saline with Tween-80.
Where [8] appears, read: dose: 100.0 mg/kg/injection, schedule: Q01DX009 (ip), vehicle: saline with Tween-80.
Where [9] appears, read: dose: 200.0 mg/kg/injection, schedule: Q01DX009 (ip), vehicle: saline with Tween-80.
[10] abbreviates: dose: 60.0 mg/kg/injection, schedule: Q01DX005 (ip), vehicle: saline with Tween-80.
[11] abbreviates: dose: 120.0 mg/kg/injection, schedule: Q01DX005 (ip), vehicle: saline with Tween-80.
Where [12] appears, read: dose: 240.0 mg/kg/injection, schedule: Q01DX005 (ip), vehicle: saline with Tween-80.
[13] abbreviates: dose: 50.0 mg/kg/injection, schedule: Q01DX005 (ip), vehicle: saline.
The mark [14] stands for this setting: dose: 100.0 mg/kg/injection, schedule: Q01DX005 (ip), vehicle: saline.
[15] abbreviates: dose: 200.0 mg/kg/injection, schedule: Q01DX005 (ip), vehicle: saline.

Where “and” joins values, the source holds several entries; their conditions need not be identical. Equal entries are not always repeated. Inconclusive results and toxic doses are left out.

In the case of `O=C([O-])C(=O)[O-].[Co+3].[NH2-].[NH2-].[NH2-].[NH2-].[O-][Cl+3]([O-])([O-])O`, the T/C runs as follows: (dose: 12.5 mg/kg/injection, schedule: Q04DX003 (ip), vehicle: water) 89 % of control; (dose: 25.0 mg/kg/injection, schedule: Q04DX003 (ip), vehicle: water) 95 % of control; (dose: 50.0 mg/kg/injection, schedule: Q04DX003 (ip), vehicle: water) 98 % of control; (dose: 100.0 mg/kg/injection, schedule: Q04DX003 (ip), vehicle: water) 94 % of control.
On to `CCOC(=O)Cc1c(C)noc1OC`, for which the T/C reads like this: under setting [1], 106 % of control; under setting [2], 97 % of control; under setting [3], 99 % of control; under setting [4], 97 % of control.
Consider `CC(=O)O[C@H]1[C@@H](OC(C)=O)[C@]2(C)[C@H](CC[C@@]3(C)[C@H](c4ccoc4)C[C@H]4O[C@@]423)[C@@]2(C)C=CC(=O)OC(C)(C)[C@H]12`, for which the T/C is 94 % of control (dose: 1.25 mg/kg/injection, schedule: Q04DX003 (ip), vehicle: Klucel (hydroxypropylcellulose) (HPC)); 88 % of control (dose: 2.5 mg/kg/injection, schedule: Q04DX003 (ip), vehicle: Klucel (hydroxypropylcellulose) (HPC)); 93 % of control (dose: 5.0 mg/kg/injection, schedule: Q04DX003 (ip), vehicle: Klucel (hydroxypropylcellulose) (HPC)); 88 % of control (dose: 10.0 mg/kg/injection, schedule: Q04DX003 (ip), vehicle: Klucel (hydroxypropylcellulose) (HPC)).
With `CCCCCCCCCC[N+](C)([O-])CCCCCC[N+](C)([O-])CCCCCCCCCC` (configuration not stated), the T/C under setting [5] is 102 % of control and the T/C under setting [6] was 99 % of control.
As for `O=[N+]([O-])/C=C/c1ccccc1Cl`, the T/C is 115 % of control (dose: 10.0 mg/kg/injection, schedule: Q01DX009 (ip), vehicle: other) and 118 % of control (dose: 30.0 mg/kg/injection, schedule: Q04DX003 (ip), vehicle: other).
Take `CCOc1cccc(/C=N/n2c(C)nc3ccccc3c2=O)c1O`: the T/C reads like this: under setting [7], 101 % of control; under setting [8], 102 % of control; under setting [9], 96 % of control.
Take `CN(CCCNc1c2ccccc2nc2ccccc12)CCCNc1c2ccccc2nc2ccccc12`: the T/C (dose: 1.25 mg/kg/injection, schedule: Q01DX009 (ip), vehicle: other) was 115 % of control.
Regarding `Cn1c(N)c(-n2[nH]c(=O)n(-c3ccccc3)c2=O)c(=O)n(C)c1=O`, the T/C is, setting by setting: (dose: 50.0 mg/kg/injection, schedule: Q01DX009 (ip), vehicle: Klucel (hydroxypropylcellulose) (HPC)) 106 % of control; (dose: 100.0 mg/kg/injection, schedule: Q01DX009 (ip), vehicle: Klucel (hydroxypropylcellulose) (HPC)) 95 % of control; (dose: 200.0 mg/kg/injection, schedule: Q01DX009 (ip), vehicle: Klucel (hydroxypropylcellulose) (HPC)) 98 % of control.
For `CC(C)NC(=O)OCc1c(COC(=O)NC(C)C)c(-c2ccc(Cl)c(Cl)c2)n2c1SCC2`, the T/C under setting [1] is 105 % of control; the T/C under setting [2] is 115 % of control; the T/C under setting [3] is 116 % of control and 121 % of control; the T/C under setting [4] is 117 % of control and 123 % of control; the T/C (dose: 400.0 mg/kg/injection, schedule: Q01DX005 (ip), vehicle: saline with Tween-80) is 122 % of control.
Take `c1cc(Nc2ccc3c(c2)OCO3)c2cc(C3CCCCC3)ccc2n1`: the T/C under setting [10] is 97 % of control, the T/C under setting [11] is 98 % of control and the T/C under setting [12] was 100 % of control.
Take `CCN(CC)c1ccc(N=Nc2nc(Cl)c(/C=C3\C(=O)c4ccccc4C3=C(C#N)C#N)s2)c(NC(C)=O)c1`: the T/C runs as follows: under setting [10], 96 % of control; under setting [11], 97 % of control; under setting [12], 95 % of control.
Consider `CC(O)C(NC(=O)c1ccc([N+](=O)[O-])cc1)C(=O)O` (configuration not stated), for which the T/C was 105 % of control under setting [13], 102 % of control under setting [14] and 91 % of control under setting [15].
For the molecule `Cc1csc2cc(Br)c3ccccc3c12`, the T/C runs as follows: (dose: 100.0 mg/kg/injection, schedule: Q01DX001 (ip), vehicle: saline with Tween-80) 101 % of control; (dose: 200.0 mg/kg/injection, schedule: Q01DX001 (ip), vehicle: saline with Tween-80) 103 % of control.
On to `C=C(CC(O)c1ccccc1)C(=O)Nc1ccccc1OC` (configuration not stated), for which the T/C is 98 % of control under setting [13], 103 % of control under setting [14] and 100 % of control under setting [15].
As for `O=C(O)c1cccnc1Cl`, the T/C is 103 % of control under setting [7], 96 % of control under setting [8] and 100 % of control under setting [9].
For the molecule `Fc1ccc(NC(=S)NC2CC2)c(F)c1`, the T/C under setting [7] was 104 % of control and the T/C under setting [8] is 104 % of control.
Regarding `CC1(C)N=C(N)N=C(N)N1c1ccc(CCC(=O)Nc2ccc(S(=O)(=O)F)cc2)cc1`, the T/C reads like this: (dose: 4.4 mg/kg/injection, schedule: Q01DX009 (ip), vehicle: saline with Tween-80) 155 % of control; (dose: 6.6 mg/kg/injection, schedule: Q01DX009 (ip), vehicle: saline with Tween-80) 150 % of control; (dose: 10.0 mg/kg/injection, schedule: Q01DX009 (ip), vehicle: saline with Tween-80) 160 % of control; (dose: 12.5 mg/kg/injection, schedule: Q01DX009 (ip), vehicle: saline with Tween-80) 169 % of control; (dose: 25.0 mg/kg/injection, schedule: Q01DX009 (ip), vehicle: saline with Tween-80) 180 % of control; (dose: 44.0 mg/kg/injection, schedule: Q01DX009 (ip), vehicle: saline with Tween-80) 168 % of control. For the same molecule, the T/C was 177 % of control under setting [7]; 93 % of control (dose: 50.0 mg/kg/injection, schedule: Q01DX009 (ip), vehicle: saline); 177 % of control (dose: 66.0 mg/kg/injection, schedule: Q01DX009 (ip), vehicle: saline with Tween-80).
For `O=C(Nc1ccccc1)c1c(O)[nH]c(=O)[nH]c1=O`, the T/C reads like this: under setting [3], 163 % of control and 207 % of control; under setting [4], 204 % of control.
For the molecule `O=S1(=O)CC2(N3CCOCC3)C3CCC(C3)C21` (configuration not stated), the T/C runs as follows: under setting [5], 99 % of control and 101 % of control; under setting [6], 100 % of control and 104 % of control; (dose: 200.0 mg/kg/injection, schedule: Q04DX003 (ip), vehicle: saline with Tween-80) 101 % of control and 104 % of control.
As for `O=C(NC(C(=O)NO)C(NO)c1ccccc1)c1ccccc1` (configuration not stated), the T/C is, setting by setting: under setting [2], 103 % of control; under setting [3], 102 % of control; under setting [4], 102 % of control.
On to `CN(N=O)N1C(=O)SCC(c2ccccc2)(c2ccccc2)C1=O`, for which the T/C (dose: 60.0 mg/kg/injection, schedule: Q01DX005 (ip), vehicle: Klucel (hydroxypropylcellulose) (HPC)) is 97 % of control; the T/C (dose: 120.0 mg/kg/injection, schedule: Q01DX005 (ip), vehicle: Klucel (hydroxypropylcellulose) (HPC)) is 90 % of control; the T/C (dose: 240.0 mg/kg/injection, schedule: Q01DX005 (ip), vehicle: Klucel (hydroxypropylcellulose) (HPC)) was 88 % of control.
